According to patent US20040229791A1, “Compositions and methods of modulating TGF-beta activity by fatty acids” (priority 2002, published 2004):

Target: T1, TGF-β2-α2M* complex (Homo sapiens, UniProt P01023)
T1 construct: was purified from pooled citrate-treate human plasma; from tissue; host or cells: pooled citrate-treated human plasma
T1 sequence (P01023 24-1474): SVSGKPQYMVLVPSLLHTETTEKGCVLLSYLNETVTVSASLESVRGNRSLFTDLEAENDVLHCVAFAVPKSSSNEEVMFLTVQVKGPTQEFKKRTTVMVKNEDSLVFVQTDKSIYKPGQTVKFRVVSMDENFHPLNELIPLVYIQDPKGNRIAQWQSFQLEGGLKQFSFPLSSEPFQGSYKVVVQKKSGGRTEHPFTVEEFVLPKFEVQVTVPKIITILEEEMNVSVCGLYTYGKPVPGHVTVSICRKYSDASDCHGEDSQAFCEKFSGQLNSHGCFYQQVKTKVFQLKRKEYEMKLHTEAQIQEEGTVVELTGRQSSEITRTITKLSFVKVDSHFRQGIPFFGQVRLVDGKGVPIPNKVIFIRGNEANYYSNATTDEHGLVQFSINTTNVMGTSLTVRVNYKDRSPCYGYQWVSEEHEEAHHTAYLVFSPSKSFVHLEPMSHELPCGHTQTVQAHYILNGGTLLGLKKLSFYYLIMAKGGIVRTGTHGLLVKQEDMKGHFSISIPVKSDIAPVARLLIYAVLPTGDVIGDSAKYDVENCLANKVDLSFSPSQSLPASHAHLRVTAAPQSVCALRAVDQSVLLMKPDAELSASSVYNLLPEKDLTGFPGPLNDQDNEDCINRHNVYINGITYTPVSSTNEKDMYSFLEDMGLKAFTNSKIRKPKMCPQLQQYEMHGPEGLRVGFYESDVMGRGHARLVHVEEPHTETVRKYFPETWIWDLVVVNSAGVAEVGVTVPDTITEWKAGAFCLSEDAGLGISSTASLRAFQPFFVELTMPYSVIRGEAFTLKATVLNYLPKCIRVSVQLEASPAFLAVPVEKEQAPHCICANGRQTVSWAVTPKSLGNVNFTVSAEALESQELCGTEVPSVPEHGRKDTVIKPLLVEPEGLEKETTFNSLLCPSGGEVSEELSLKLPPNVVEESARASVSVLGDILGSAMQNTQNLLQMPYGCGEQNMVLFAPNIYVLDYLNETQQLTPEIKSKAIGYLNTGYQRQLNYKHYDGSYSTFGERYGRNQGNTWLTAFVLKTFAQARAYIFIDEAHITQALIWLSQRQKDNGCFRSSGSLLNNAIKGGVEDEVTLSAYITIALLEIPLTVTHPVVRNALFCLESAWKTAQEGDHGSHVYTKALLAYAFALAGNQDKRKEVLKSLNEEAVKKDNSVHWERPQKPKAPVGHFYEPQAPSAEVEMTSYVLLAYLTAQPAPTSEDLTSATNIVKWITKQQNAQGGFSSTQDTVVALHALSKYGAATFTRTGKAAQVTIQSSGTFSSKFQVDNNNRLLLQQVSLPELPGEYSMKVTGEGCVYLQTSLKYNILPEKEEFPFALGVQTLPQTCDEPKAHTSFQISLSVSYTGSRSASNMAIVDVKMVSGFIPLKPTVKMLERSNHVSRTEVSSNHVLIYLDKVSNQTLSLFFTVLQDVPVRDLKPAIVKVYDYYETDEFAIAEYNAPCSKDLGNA
Experiment: Inhibition of 125I-TGF-β2 and α2M* complex formation (5% non-denaturing PAGE)
Type: binding
Conditions: 50% inhibition; read-out: concentration that inhibited 50% of the complex formation of α2M* and 125I-TGF-β2
Method: TGF- ? isoforms bind to α2M* with different affinities: TGF ? β2>TGF ? β1 ( active sites of TGF ? β1 and TGF- ? 2 responsible for high-affinity binding to ? 2M* are disti from the low-affinity ? 2M* binding site in TGF- ? 3 (19). To determine if fatty acids differentially affect the binding of TGF- ? isoforms to ? 2M*, the effects of various concentrations of arachidonic acid and myristic acid on complex formation of ^125I-labeled TGF ? β isoforms and ? 2M were determined*. […] It inhibited 30% of the complex form . α2M* and TGF ? β2 and TGF ? β3 at 100 and >250 μM, respectively. Arachidon polyunsaturated fatty acid, was a stronger inhibitor of complex formation of ? 2M* and TGF-.β2/TGF ? β3. It inhibited 50% of the complex formation of ? 2M* and ^125I-TGF- ? 2 at 50 μM (FIG. 3A). The observation that myristic acid and arachidonic acid inhibited complex formation of ^125I-TGF- ? […] 2M* complexes in the reaction mixtures were then analyzed by 7.5% SDS-PAGE and autoradiography.
Complex formation of ^125I-TGF-β and ? […] After 30 min at room temperature, the complex formation of ^125I-TGF- ? and. α2M* was determined by 5% non-denaturing polyacrylamide gel electrophoresis (PAGE) or by 7.5% SDS-PAGE following cross-linking by 0.6 mM DSS. After electrophoresis, the gel was stained with Coomassie blue and analyzed by autoradiography. […] 2M* was quantified using a PhosphoImager (Fuji).

CCCCC/C=C\C/C=C\C/C=C\C/C=C\CCCC(=O)O [arachidonic acid]
IC50: 50 µM
